Where two headings read alike, the source gives them in different places.
Tests used:
AdV 6 = assay: Antiviral EC50 against AdV 6 (method not given); type: cell-based, adenovirus 6; details: Human mastadenovirus C; AdV 6, summary table
JC Virus = details: Polyomavirus, cited from earlier work

## Nc1nc2c(ncn2/C=C2/CC2(CO)CO)c(=O)[nH]1 [Filociclovir, 2-amino-9-{(Z)-[2,2-bis(hydroxymethyl)cyclopropylidene]methyl}-3,9-dihydro-6H-purin-6-one]
AdV 6
  EC50: 2 µM
JC Virus; listed as filociclovir
  EC50: ≤ 50 µM
JC Virus
  EC50: 46 ± 44 µM
